Source: US5103018A, “Mitomycin derivatives” (Kyowa Hakko Kogyo Kabushiki Kaisha, priority 1986, dated 1992)
Converted amounts (≈) assume the structure as drawn.

What was measured:
Sarcoma 180 solid tumour = experiment: animal or person; type: in vivo, mice (ddy strain); conditions: for ED50: Mus musculus, Sarcoma-180, ip, 168 h, read-out: ED50 ip
From the text: (§1) Certain compounds were selected from Compounds I. The following Table 4 indicates anti-tumour activity against Sarcoma 180 solid tumour (ED50), acute toxicity (LD50) and effects on the peripheral leucocytes (WBC4000) of each compound.
(1) Effect against Sarcoma 180 solid tumour:
5×10^6 cells of Sarcoma 180 solid tumour cells were abdominally implanted into male mice of ddy strain. 7 days after this, ascites cells were sampled. The cells were washed once with a sterilized physiological solution of sodium chloride and were used to prepare a cell suspension containing 5×10^7 cells per ml. On each occasion, 0.1 ml of the cell suspension was subcutaneously implanted into the right armpit of a male mouse (ddy strain; body weight 20±2 g). 24 hours after the implantation of the tumour cells, the test compound which was dissolved in a physiological solution of sodium chloride with or without addition of Tween 80 was abdominally administered to each mouse of a group consisting of 5 animals at a does of 0.1-0.2 ml. The anti-tumour activity was determined as follows:
7 days after the implantation, the major axis (a) and the minor axis (b) of the tumour were measured to calculate a value of "a×b^2 /2" which corresponds to the volume of the tumour. The anti-tumour activity was expressed by T/C viz. the ratio of the volume of the tumours (T) of the group of animals administered with the test compound to the corresponding volume of tumours (C) of the untreated animals.
(2) Determination of ED50 :
The term ED50 denotes the administered amount needed for reducing the volume of Sarcoma 180 solid tumours in the animals to 50% on the basis of the corresponding volume of Sarcoma 180 solid tumours in control (untreated) animals.
On graph paper, T/C was indicated by an arithmetic scale on the longitudinal axis and the administered amount of test compound was indicated by a logarithmic scale on the lateral axis.

in vivo = type: in vivo, mice (ddy strain); conditions: mouse, in vivo, ip; read-out: (WBC4000/ED50)* = (WBC4000/ED50)/[(WBC4000/ED50) of MMC1]
Experimental: as §1
(§2) (4) Effect upon the number of the peripheral leucocytes:
(§3) Sarcoma 180 solid tumour cells (5×10^6) were subcutaneously implanted into the right armpit of each mouse (body weight 20±2 g) of a group consisting of 5 male mice (ddy strain). 24 hours after implantation,a test compound was abdominally administered to each mouse. 4 days later, blood (each 0.02 ml) was collected from the suborbital plexus vein of each tumour-carrying mouse. The collected sample of blood was dispersed in 9.98 ml of Cell-kit Seven solution. One drop of saponin solution was added to the sample to dissolve erythrocytes and then a microcell counter was used to measure the number of leucocytes. On graph paper, the number of leucocytes was indicated on the y-axis by an arithmetic scale and the does of the test compound was indicated on the x-axis by a logarithmic scale.
(§4) The relationship between the number of peripheral leucocytes and the dosage of the test compound was plotted to obtain WBC4000 viz. the dosage corresponding to […] per mm^3 (about half of the number of leucocytes of normal mice).

peripheral leucocytes = experiment: in vivo; type: in vivo, mice (ddy strain); conditions: for WBC4000/ED50 (in words): in comparison with mitomycin C
Experimental: as §1, §2, §3, §4

Acute toxicity = type: in vivo, mice (ddy); conditions: mouse, in vivo, ip; for LD50 at 336 h: ddy mice, single i.p., 14 days, Behren Korber's method; for selectivity ratio: read-out: (C.I.)* = (LD50/ED50)/[(LD50/ED50) of MMC1]
Experimental: as §1
(§5) Each animal of the test group consisting of 5 ddy mice was once administered (i.p.) with a test compound. […] The LD50 was determined by Behren Korber's method.

ddy mice = experiment: Acute toxicity; type: in vivo; conditions: for C.I. (LD50/ED50) (in words): in comparison with mitomycin C
Experimental: as §1, §5

Lipophilicity = type: physicochemical; conditions: in comparison with mitomycin C
P388 Leukemia = experiment: Effect upon Leukemia P 388; type: in vivo, mouse (CDF1); conditions: single i.p., 33 days
Experimental: (5) Effect upon Leukemia P 388:
Ascites cells were collected from P388 Leukemia-carrying mouse (DBA/2) 7 days after the implantation. The number of the cells of P388 Leukemia in the sample was counted. A physiological solution of sodium chloride was sterilized and used to prepare a cell suspension containing 5×10^6 tumour cells per ml. On each occasion, 0.2 ml of the suspension containing 1×10^6 cells was implanted into the abdominal cavity of each mouse (CDF1; body weight 20~25 g). 24 hours after implantation, the test compound was once given to each mouse of a test group consisting of 6 mice by abdominal injection.
The activity of the test samples was determined by the ratio of the average survival days of the treated animals to the average survival days of untreated animals viz. ILS % (Increased Life Span).

[1] = Equilibration between mitomycin-type and albomitomycin-type substance in aqueous solution; type: physicochemical; conditions: aqueous solution (5 mg/ml), 25° C., 24 hours
Experimental: In the case wherein the compound of Example 1 described hereinafter was equilibrated by allowing to stand in an aqueous solution (5 mg/ml) at a temperature of 25° C. for 24 hours, the molar ratio of the albomitomycin-type substance was 8.5%.

[2] = system: Klebsiella pneumoniae ATCC 10031; experiment: microbe, parasite or virus in culture; type: cell-based; conditions: ATCC10031, pH 7, read-out: minimum inhibitory concentration, KP
From the text: Certain Compounds I were selected. […] In this table, the microorganisms used are abbreviated as follows:
KP: Klebsiella pneumoniae ATCC 10031

[3] = system: Staphylococcus aureus ATCC 6583P; experiment: Minimum inhibitory concentration, agar dilution method, SA; type: cell-based; conditions: Staphylococcus aureus, ATCC6583P, pH 7, read-out: minimum inhibitory concentration, SA
From the text: (§6) Certain Compounds I were selected. Table 3 indicates their anti-bacterial activities in terms of their minimum inhibitory concentration (μg/ml), determined by the agar dilution method effected at a pH of 7.0. In this table, the microorganisms used are abbreviated as follows:
SA: Staphylococcus aureus ATCC 6583P

[4] = system: Streptococcus faecalis ATCC 10541; experiment: Minimum inhibitory concentration, agar dilution method, SF; type: cell-based; conditions: Enterococcus faecalis, ATCC10541, pH 7, read-out: minimum inhibitory concentration, SF
From the text: as §6
SF: Streptococcus faecalis ATCC 10541

[5] = system: Proteus vulgaris ATCC 6897; experiment: Minimum inhibitory concentration, agar dilution method, PV; type: cell-based; conditions: Proteus vulgaris, ATCC6897, pH 7, read-out: minimum inhibitory concentration, PV
From the text: as §6
PV: Proteus vulgaris ATCC 6897

Solubility in water = type: physicochemical; conditions: for solubility: water
Escherichia coli ATCC 26 = experiment: Minimum inhibitory concentration, agar dilution method, EC; type: cell-based; conditions: Escherichia coli, ATCC26, pH 7, read-out: minimum inhibitory concentration, EC
From the text: as §6
EC: Escherichia coli ATCC 26

[6] = Stability of isolated compound; type: physicochemical

Compound	ED50 (Sarcoma 180 solid tumour) [mg/kg]	selectivity ratio (in vivo)	WBC4000/ED50 (in words) (peripheral leucocytes)	LD50 at 336 h (Acute toxicity) [mg/kg]	selectivity ratio (Acute toxicity)	C.I. (LD50/ED50) (in words) (ddy mice)	lipophilicity (in words) (Lipophilicity)	other results
CO[C@@]12[C@H](COC(N)=O)C3=C(C(=O)C(C)=C(NCCSSCC(=O)O[C@H]4CC[C@H]5[C@@H]6CCc7cc(OC(=O)c8ccccc8)ccc7[C@H]6CC[C@]45C)C3=O)N1C[C@@H]1N[C@@H]12 [Compound 26, 7-N-[2-[[[[17β-(3-benzoyloxy-1,3, 5(10)-estratrienyl)oxy]carbonyl]methyl]dithio]ethyl]mitomycin C]	5	2.57	superior to mitomycin C	18.8	1.27	superior to mitomycin C	superior to mitomycin C	ILS* (ratio of ILS % to that of mitomycin C) (P388 Leukemia; dose 6.25 mg/kg): > 1.08
CO[C@@]12[C@H](COC(N)=O)C3=C(C(=O)C(C)=C(NCCSSCCNC(=O)CC[C@H](N)C(=O)O)C3=O)N1C[C@@H]1N[C@@H]12 [Compound 1, 7-N-[2-[[2-(N^5 -L-glutamino)ethyl]dithio]ethyl]mitomycin C]	2.7	4.12	very high	22.5	2.58	very high	–	molar ratio of the albomitomycin-type substance at equilibrium [1]: 8.5%; MIC [2]: 0.4 µg/mL (≈ 0.668 µM); MIC [3]: 0.8 µg/mL (≈ 1.34 µM); MIC [4]: 1.6 µg/mL (≈ 2.67 µM); MIC [5]: 0.8 µg/mL (≈ 1.34 µM); ILS* (ratio of ILS % to that of mitomycin C) (P388 Leukemia; dose 25 mg/kg): > 2.30; water-solubility (in words) (Solubility in water): good; solubility (Solubility in water): > 20 mg/mL; MIC (Escherichia coli ATCC 26): > 50 µg/mL
Cc1c(C)c2c(c(C)c1OC(=O)CCC(=O)NCCSSc1ccccn1)CC[C@@](C)(CCC[C@H](C)CCC[C@H](C)CCCC(C)C)O2 [Compound "n"]	–	–	–	–	–	–	–	stability (in words) [6]: relatively stable
CC1=C(NCCSSCC(=O)O[C@H]2CC[C@H]3[C@@H]4CCc5cc(OC(=O)c6ccccc6)ccc5[C@H]4CC[C@]23C)C(=O)C2=C(C1=O)N1C[C@H]3[C@H](N3C)[C@]1(O)[C@H]2COC(N)=O (stereo partly drawn) [Compound 28, 7-N-[2-[[[[17β-(3-benzoyloxy-1,3, 5(10)-estratrienyl)oxy]carbonyl]methyl]dithio]ethyl]mitomycin D]	9.9	1.43	superior to mitomycin C	75	2.53	superior to mitomycin C	superior to mitomycin C	ILS* (ratio of ILS % to that of mitomycin C) (P388 Leukemia; dose 25 mg/kg): > 1.67
CO[C@]12[C@H](COC(N)=O)[C@H]3C(=O)C(N)=C(C)C(=O)[C@]34N3[C@H]1[C@@H]3CN24 [MM-C 2, albomitomycin C, reference compound]	–	–	–	–	–	–	–	ED50 ip (Sarcoma 180 solid tumour; ddy mice, i.p. 24 h after implantation, 50% reduction of tumour volume at day 7): 5.4 mg/kg; (WBC4000/ED50)* = (WBC4000/ED50)/[(WBC4000/ED50) of MMC1] (peripheral leucocytes; relative to mitomycin C, ip, 4 days after dosing): 0.95; LD50 ip (ddy mice; ddy mice, single i.p., 14 days, Behren Korber's method): < 12.0 mg/kg; (C.I.)* = (LD50/ED50)/[(LD50/ED50) of MMC1] (ddy mice; relative to mitomycin C, ip): 1.16
CO[C@@]12[C@H](COC(N)=O)C3=C(C(=O)C(C)=C(NCCSSCCC(=O)O[C@H]4CC[C@H]5[C@@H]6CCc7cc(OC(=O)c8ccccc8)ccc7[C@H]6CC[C@]45C)C3=O)N1C[C@@H]1N[C@@H]12 [Compound 27, 7-N-[2-[[2-[[17β-(3-benzoyloxy-1,3, 5(10)-estratrienyl)oxy]carbonyl]ethyl]dithio]ethyl]mitomycin C]	4.6	2.43	superior to mitomycin C	22.5	1.63	superior to mitomycin C	superior to mitomycin C	ILS* (ratio of ILS % to that of mitomycin C) (P388 Leukemia; dose 12.5 mg/kg): > 1.53
CC1=C(/C=C/C(C)=C/C=C/C(C)=C/C(=O)NCCSSc2ccccn2)C(C)(C)CCC1 [Compound "m", N-2-(2-pyridyldithio)ethylretinamide]	–	–	–	–	–	–	–	stability (in words) [6]: unstable
CO[C@@]12[C@H](COC(N)=O)C3=C(C(=O)C(C)=C(NCCSSCCNC(=O)CC[C@@H](N)C(=O)O)C3=O)N1C[C@@H]1N[C@@H]12 [Compound 3, 7-N-[2-[[2-(N^5 -D-glutamino)ethyl]dithio]ethyl]mitomycin C]	5.7	3.02	–	22.5	1.46	–	–	MIC [2]: 0.8 µg/mL (≈ 1.34 µM); MIC [3]: 1.6 µg/mL (≈ 2.67 µM); MIC [4]: 3.1 µg/mL (≈ 5.18 µM); MIC [5]: 0.8 µg/mL (≈ 1.34 µM); solubility (Solubility in water): > 20 mg/mL; MIC (Escherichia coli ATCC 26): 50 µg/mL (≈ 83.5 µM)
